Series [1] has as its system RD cells. Kind of series: Detection of cytotoxicity in RD cells (CellTiter-Glo). In kind it is cell-based. The conditions noted are these: for TD50: 4 days, CellTiter-Glo, median toxic dose. In short, it runs like this:
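RD cells (1*10^5/mL) cultured 4 days at 37 °C with 10 compound concentrations from 3-fold dilution of a 400 μM pretreatment solution, final being 0.5 times that. Viability by CellTiter-Glo luminescence versus cell control; TD50 from S-curve fit; SI=TD50/IC50.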

For series [2], the target named is T1, mTORC2 (Homo sapiens, UniProt P42345).
T1 construct: endogenous in cells; host or cells: RD cells
Kind of series: Western blot, phosphorylation of Ser473 of Akt in RD cells (mTORC2 inhibition). It counts as cell-based. The conditions noted are these: 20 μM, 2 hours, Western blot (FIG. 1). How it is done: In order to test the inhibitory activity of the synthesized compounds on the two mTOR complexes, the inhibitory activity experiments of mTORC1 and mTORC2 were carried out. Since mTORC1 and mTORC2 exerted their function by activating the phosphorylation of downstream substrates, the inhibitory activity of the compounds on mTORC1 and mTORC2 could be determined by detecting the phosphorylation levels of the Thr389 site of mTORC1 downstream substrate p70S6K1 and the Ser473 site of mTORC2 downstream substrate Akt.
Pretreatment of Compound:
(1) RD cells were cultured in DMEM medium containing 10% FBS and 1×PS (penicillin and streptomycin were at concentrations 100 IU and 100 μg/mL, respectively) at 37° C. and 5% CO2.
(2) The RD cells (5×10^5 cells/2 mL medium) were inoculated into a 6-well plate and incubated at 37° C. and 5% CO2 for 24 hours.
(3) The cells were washed once with PBS, and the cells were cultured in serum-free medium without nutrients overnight.
(4) Formulation of compounds: […]
Preparation of insulin medium: Insulin was diluted in DMEM medium containing 10% FBS and 1×PS so that the final concentration of insulin was 167 nM.
Pretreatment of compound to be tested: The compound was dissolved in DMSO so that the concentration of the test compound was 20 mM, and the compound was diluted in 167 nM insulin medium to reach a concentration of 20 μM.
Preparation of rapamycin solution: Rapamycin was dissolved in DMSO to a concentration of 10 mM, and the rapamycin was diluted in 167 nM insulin medium to reach a concentration of 20 μM.
(5) The serum-free medium in each well was removed.
(6) 2 mL of complete medium containing DMSO was added to each well as a control carrier. The final concentration of DMSO was 0.2%.
(7) 2 mL of 20 μM rapamycin solution and 20 μM the compound to be tested were added to the designated wells, respectively. The final concentration of DMSO was 0.2%.
(8) The cells were incubated for 2 hours at 37° C. and 5% CO2.
Protein extraction and concentration determination:
(1) The cells were washed once with refrigerated PBS, and then the PBS was discarded.
(2) 150 μL of cell extraction buffer (RIPA, […], catalog number: C1053) was transferred into each well to lyse the cells, and then the resulting cell solution were incubated on ice for 30 minutes.
(3) Centrifugation was performed at 14000 rpm (13000× g) for 30 minutes at 4° C.
(4) The supernatant was transferred into a new eppendorf tube, and the cell lysate was stored at −80° C. before testing.
(5) The protein concentration was determined by BCA method.
Preparation of Buffer Solutions:
(1) 100× Protease inhibitor (Beyotime, catalog number: P1005): 1 mL of redistilled water was added to the protease inhibitor and stirred gently until the solid was completely dissolved.
(2) Lysis Buffer: […] of 100× protease inhibitor and 2× phosphatase inhibitor Cocktails PhosSTOP (Beyotime, catalog number: P1082) were added to 100 mL of the cell extract, and stirred gently until it was completely dissolved.
(3) Electrophoresis Running Buffer:
10×MOPS buffer: 52.33 g of MOPS, 30.29 g of Tris base, 10 mL of 0.5 mol/L EDTA (pH 8.5) and 5 g of SDS was dissolved in 400 mL of redistilled water, stirred to dissolve, and the pH was adjusted to 7.5, then redistilled water was added again to reach a volume of 500 mL; 1×MOPS: 100 mL of 10×MOPS was diluted with redistilled water to 1000 mL.
(4) 1× Transfer Buffer: […] of 10× transfer buffer (144 g of glucine, 30.3 g of trisbase, and distilled water were mixed to reach a volume of 1 L) and 400 mL of methanol were dissolved in 1500 mL of redistilled water, and then the redistilled water was added to reach a volume of 2000 mL. […]
For orientation: In western blotting, separated proteins are transferred to a membrane and probed.

SMILES strings stand for the structures.

In turn, `CC(=O)/C=C/c1cnc2ccc(-c3ccc(C)nc3)cc2c1Nc1cccc(C(F)(F)F)c1` [HTL-2-38, (E)-6-[3-(6-methyl)pyridyl]-4-[3-(trifluoromethyl)phenyl]aminoquinoline-3-butenone] gave a TD50 in series [1] of 8.71 ± 1.53 µM. `NC(=O)c1ccc(-c2ccc3ncc4oc(=O)n(-c5cccc(C(F)(F)F)c5)c4c3c2)cc1` [HTL-5-21, 8-(4-carbamoyl)phenyl-1-[3-(trifluoromethyl)phenyl]oxazolo[5,4-c]quinolin-2(1H)-one]: in series [1], the TD50 worked out at 6.95 ± 1.23 µM. Moreover, the “phosphorylation expression level of Akt” value in series [2] is listed as “significantly down-regulate”. On to `Nc1cccc(Nc2ccc3ncc4ccc(=O)n(-c5cccc(C(F)(F)F)c5)c4c3c2)c1` [HTL-6-11, 9-(3-aminophenyl)imino-2-oxo-1-[3-(trifluoromethyl)phenyl]-1,2-dihydrobenzo[h][1,6]naphthyridine], for which the TD50 in series [1] worked out at 7.58 ± 1.24 µM. Further, the “phosphorylation expression level of Akt” value in series [2] is given as “significantly down-regulate”. With `Nc1cccc(Nc2ccc3ncc4ccc(=O)n(-c5cccc(C(F)(F)F)c5)c4c3c2)n1` [HTL-6-12, 9-[2-(6-aminopyridyl)]imino-2-oxo-1-[3-(trifluoromethyl)phenyl]-1,2-dihydrobenzo[h][1,6]naphthyridine], in series [1], the TD50 is 5.19 ± 0.56 µM. Also, the “phosphorylation expression level of Akt” value in series [2] was “significantly down-regulate”.

The molecule `NC(=O)/C=C/c1ccc2ncc3oc(=O)n(-c4cccc(C(F)(F)F)c4)c3c2c1` [HTL-6-30, (E)-8-(2-carbamoyl-vinyl)-1-[3-(trifluoromethyl)phenyl]oxazolo[5,4-c]quinolin-2(1H)-one] yielded a TD50 in series [1] of 7 ± 0.09 µM. On to `CCC(=O)Nc1ccc(-c2ccc3ncc4ccc(=O)n(-c5cccc(C(F)(F)F)c5)c4c3c2)cn1` [HTL-6-45, 9-[3-(6-propionylamino)pyridyl]-2-oxo-1-[3-(trifluoromethyl)phenyl]-1,2-dihydrobenzo[h][1,6]naphthyridine], for which the TD50 in series [1] was determined as 0.04 ± 0.02 µM. In addition, the “phosphorylation expression level of Akt” value in series [2] is given as “significantly down-regulate”.

In turn, `O=c1ccc2cnc3ccc(-c4ccc5ncccc5c4)cc3c2n1-c1cccc(C(F)(F)F)c1` [HTL-6-47, 9-(6-quinolyl)-2-oxo-1-[3-(trifluoromethyl)phenyl]-1,2-dihydrobenzo[h][1,6]naphthyridine] came in with a TD50 in series [1] of 0.03 ± 0.02 µM. Moreover, in series [2], the “phosphorylation expression level of Akt” value is on record as “significantly down-regulate”. With `O=c1ccc2cnc3ccc(-c4cccnc4F)cc3c2n1-c1cccc(C(F)(F)F)c1` [HTL-6-48, 9-[3-(2-fluoro)pyridyl]-2-oxo-1-[3-(trifluoromethyl)phenyl]-1,2-dihydrobenzo [h][1,6]naphthyridine], in series [1], the “toxicity, in words” value is listed as “relatively low toxicity” and the TD50 turned out to be 1.23 ± 1.20 µM. The “phosphorylation expression level of Akt” value in series [2] is recorded as “significantly down-regulate”. Take `Cc1ncccc1-c1ccc2ncc3ccc(=O)n(-c4cccc(C(F)(F)F)c4)c3c2c1` [HTL-6-49, 9-[3-(2-methyl)pyridyl]-2-oxo-1-[3-(trifluoromethyl)phenyl]-1,2-dihydrobenzo[h][1,6]naphthyridine]: the TD50 in series [1] worked out at 0.07 ± 0.00 µM. In series [2], the “phosphorylation expression level of Akt” value is reported as “significantly down-regulate”.

The molecule `O=c1ccc2cnc3ccc(-c4cc[nH]n4)cc3c2n1-c1cccc(C(F)(F)F)c1` [HTL-6-50, 9-[(1H)-3-pyrazolyl]-2-oxo-1-[3-(trifluoromethyl)phenyl]-1,2-dihydrobenzo[h][1,6]naphthyridine] yielded a TD50 in series [1] of 0.17 ± 0.05 µM. Further, in series [2], the “phosphorylation expression level of Akt” value was “significantly down-regulate”.

For the molecule `O=c1ccc2cnc3ccc(-c4ccc(F)nc4)cc3c2n1-c1cccc(C(F)(F)F)c1` [HTL-7-01, 9-[3-(6-fluoro)pyridyl]-2-oxo-1-[3-(trifluoromethyl)phenyl]-1,2-dihydrobenzo[h][1,6]naphthyridine], the TD50 in series [1] was 0.23 ± 0.33 µM. Also, the “phosphorylation expression level of Akt” value in series [2] is given as “significantly down-regulate”. In series [1], `COc1ccc(-c2ccc3ncc4ccc(=O)n(-c5cccc(C(F)(F)F)c5)c4c3c2)cn1` [HTL-7-03, 9-[3-(6-methoxy)pyridyl]-2-oxo-1-[3-(trifluoromethyl)phenyl]-1,2-dihydrobenzo[h][1,6]naphthyridine] displayed a TD50 of 0.13 ± 0.03 µM. For the same molecule, the “phosphorylation expression level of Akt” value in series [2] is on record as “significantly down-regulate”. The corresponding values for `O=C1Cc2cc(-c3ccc4ncc5ccc(=O)n(-c6cccc(C(F)(F)F)c6)c5c4c3)ccc2N1` [HTL-7-04, 9-[5-(2-oxo)indolyl]-2-oxo-1-[3-(trifluoromethyl)phenyl]-1,2-dihydrobenzo[h][1,6]naphthyridine] are 10.27 ± 7.81 µM and “significantly down-regulate”. The corresponding values for `CCCC(=O)Nc1ccc(-c2ccc3ncc4ccc(=O)n(-c5cccc(C(F)(F)F)c5)c4c3c2)cn1` [HTL-7-05, 9-[3-(6-butyrylamino)pyridyl]-2-oxo-1-[3-(trifluoromethyl)phenyl]-1,2-dihydrobenzo[h][1,6]naphthyridine] are 0.75 ± 0.36 µM and “significantly down-regulate”.

In turn, `COc1ncc(-c2ccc3ncc4ccc(=O)n(-c5cccc(C(F)(F)F)c5)c4c3c2)cn1` [HTL-7-06, 9-[5-(2-methoxy)pyrimidyl]-2-oxo-1-[3-(trifluoromethyl)phenyl]-1,2-dihydrobenzo[h][1,6]naphthyridine] displayed a TD50 in series [1] of 0.17 ± 0.06 µM. Besides, in series [2], the “phosphorylation expression level of Akt” value was “significantly down-regulate”.

Take `CCCCC(=O)Nc1ccc(-c2ccc3ncc4ccc(=O)n(-c5cccc(C(F)(F)F)c5)c4c3c2)cn1` [HTL-7-08, 9-[3-(6-valerylamino)pyridyl]-2-oxo-1-[3-(trifluoromethyl)phenyl]-1,2-dihydrobenzo[h][1,6]naphthyridine]: the TD50 in series [1] worked out at 0.70 ± 0.48 µM. The “phosphorylation expression level of Akt” value in series [2] is “significantly down-regulate”. The molecule `O=C(Cc1ccccc1)Nc1ccc(-c2ccc3ncc4ccc(=O)n(-c5cccc(C(F)(F)F)c5)c4c3c2)cn1` [HTL-7-10, 9-[3-(6-phenylacetylamino)pyridyl]-2-oxo-1-[3-(trifluoromethyl)phenyl]-1,2-dihydrobenzo[h][1,6]naphthyridine] returned a TD50 in series [1] of 0.74 ± 0.72 µM. Besides, the “phosphorylation expression level of Akt” value in series [2] is “significantly down-regulate”.

`COc1ccc(CC(=O)Nc2ccc(-c3ccc4ncc5ccc(=O)n(-c6cccc(C(F)(F)F)c6)c5c4c3)cn2)cc1` [HTL-7-11, 9-{3-[6-(4-methoxy)phenylacetylamino]pyridyl}-2-oxo-1-[3-(trifluoromethyl)phenyl]-1,2-dihydrobenzo[h][1,6]naphthyridine]: the TD50 in series [1] turned out to be 0.19 ± 0.10 µM. Moreover, the “phosphorylation expression level of Akt” value in series [2] is “significantly down-regulate”. The corresponding values for `O=c1ccc2cnc3ccc(C4=CCC5(CC4)OCCO5)cc3c2n1-c1cccc(C(F)(F)F)c1` [HTL-7-13, 9-(1,4-dioxa-spiro[4.5]dec-7-en-8-yl)-2-oxo-1-[3-(trifluoromethyl)phenyl]-1,2-dihydrobenzo[h][1,6]naphthyridine] are 200 ± 0 µM and “significantly down-regulate”.

The values are drawn from patent US20220220106A1, “QUINOLINE COMPOUNDS AND PHARMACEUTICAL COMPOSITIONS AND USES THEREOF” (Academy of Military Medical Sciences, priority 2019, published 2022).
